These results are taken from patent US10077247B2, “Tricyclic spiro compound” (ONO PHARMACEUTICAL CO., LTD., priority 2015, dated 2018).

Each structure is given as a SMILES string.

Data set [1] can be described thus: Pharmacokinetics test (hepatic microsome stability test). As to conditions: human hepatic microsome 1 mg/mL, 37° C., 60 min, 1 μmol/L.
For data set [2], the target named is rat EP4 receptor (Rattus norvegicus (Rat), UniProt P43114). The experiment in a line: EP4 antagonistic activity measurement using prostanoid receptor subtype expressing cells (cAMP). Type of data set: cell-based. As to conditions: CHO cells expressing rat EP4 receptor; inhibition of cAMP production by PGE2 10 nM. How it is done: CHO cells expressing rat EP4 receptor subtypes were prepared according to the methods of Nishigaki et al. (FEBS Letters, Vol. 364, p. 339-341, 1995), and used for experiment. Cultured subconfluent cells were detached, and suspended in an assay medium (MEM containing 1 mmol/L IBMX, 1% HSA) in a concentration of 1×10^6 cells/mL. For reaction, PGE2 was added to the cell suspension (25 μL) in a final concentration of 10 nmol/L, either alone or as a 25-μL PGE2 solution containing the test compound. After 30 minutes of reaction at room temperature, the amount of cAMP in the cells was quantified according to the method in the descriptions of the cAMP assay kit (CISBIO).
The antagonistic effect (IC50 value) of the test compound was calculated as a value that represents an inhibition rate against a reaction with PGE2 alone at 10 nM, a concentration that produces a submaximal cAMP producing effect.
A general note: Changes in cAMP serve as a functional read-out for many G protein-coupled receptors.

Chain of rat EP4 receptor (P43114 whole entry): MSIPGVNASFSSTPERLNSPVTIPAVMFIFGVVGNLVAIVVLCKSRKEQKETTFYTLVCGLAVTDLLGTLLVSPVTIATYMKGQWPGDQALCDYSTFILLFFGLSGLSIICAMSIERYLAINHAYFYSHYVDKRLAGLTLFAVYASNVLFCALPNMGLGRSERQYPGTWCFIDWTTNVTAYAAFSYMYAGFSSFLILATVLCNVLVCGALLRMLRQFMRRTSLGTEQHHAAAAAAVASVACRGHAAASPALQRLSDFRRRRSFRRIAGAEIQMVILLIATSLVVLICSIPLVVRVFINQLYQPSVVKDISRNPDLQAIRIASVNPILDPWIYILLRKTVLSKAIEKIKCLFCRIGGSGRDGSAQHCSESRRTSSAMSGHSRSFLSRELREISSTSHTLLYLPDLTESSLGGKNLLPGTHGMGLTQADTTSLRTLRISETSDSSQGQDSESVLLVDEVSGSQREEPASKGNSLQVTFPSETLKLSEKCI

With `CN1CC[C@H](NC(=O)c2ccc3c(c2)[C@]2(CCO3)C[C@H]2C(=O)Nc2cc(C#N)ccc2CCCC(=O)O)C1` [Example 2-33, 4-[4-Cyano-2-({[(2′R,4S)-6-{[(3S)-1-methyl-3-pyrrolidinyl]carbamoyl}-2,3-dihydrospiro[chromene-4,1′-cyclopropan]-2′-yl]carbonyl}amino)phenyl]butanoic acid], the “Remaining rate (%)” value in data set [1] is given as 89%. In data set [2], this molecule had an IC50 of 9.7 nM.

With `N#Cc1ccc(CCCC(=O)O)c(NC(=O)[C@@H]2C[C@]23CCOc2ccc(C(=O)Nc4ncccn4)cc23)c1` [Example 2-36, 4-[4-Cyano-2-({[(2′R,4S)-6-(2-pyrimidinylcarbamoyl)-2,3-dihydrospiro[chromene-4,1′-cyclopropan]-2′-yl]carbonyl}amino)phenyl]butanoic acid], in data set [1], the “Remaining rate (%)” value was determined as 100%. The molecule further displayed an IC50 in data set [2] of 5.4 nM.

As for `N#Cc1ccc(CCCC(=O)O)c(NC(=O)[C@@H]2C[C@]23CCOc2ccc(C(=O)Nc4ccon4)cc23)c1` [Example 2-37, 4-[4-Cyano-2-({[(2′R,4S)-6-(1,2-oxazol-3-ylcarbamoyl)-2,3-dihydrospiro[chromene-4,1′-cyclopropan]-2′-yl]carbonyl}amino)phenyl]butanoic acid], in data set [1], the “Remaining rate (%)” value worked out at 97%. Besides, half-maximal inhibition in data set [2] (IC50) was put at 3.4 nM.

For the molecule `N#Cc1ccc(CCCC(=O)O)c(NC(=O)[C@@H]2C[C@]23CCOc2ccc(C(=O)NC4CCC4)cc23)c1` [Example 2-38, 4-[4-Cyano-2-({[(2′R,4S)-6-(cyclobutylcarbamoyl)-2,3-dihydrospiro[chromene-4,1′-cyclopropan]-2′-yl]carbonyl}amino)phenyl]butanoic acid], the “Remaining rate (%)” value in data set [1] came to 100%. In addition, inhibition in data set [2] was half-maximal at 4.7 nM (IC50).

In the case of `CC(C)(C)n1cc(NC(=O)c2ccc3c(c2)[C@]2(CCO3)C[C@H]2C(=O)Nc2cc(C#N)ccc2CCCC(=O)O)cn1` [Example 2-39, 4-[4-Cyano-2-({[(2′R,4S)-6-{[1-(2-methyl-2-propanyl)-1H-pyrazol-4-yl]carbamoyl}-2,3-dihydrospiro[chromene-4,1′-cyclopropan]-2′-yl]carbonyl}amino)phenyl]butanoic acid], in data set [1], the “Remaining rate (%)” value worked out at 90%. The molecule also gave an IC50 in data set [2] of 3.4 nM.

Regarding `N#Cc1ccc(CCCC(=O)O)c(NC(=O)[C@@H]2C[C@]23CCOc2ccc(C(=O)NC4CCOCC4)cc23)c1` [Example 2-40, 4-[4-Cyano-2-({[(2′R,4S)-6-(tetrahydro-2H-pyran-4-ylcarbamoyl)-2,3-dihydrospiro[chromene-4,1′-cyclopropan]-2′-yl]carbonyl}amino)phenyl]butanoic acid], the “Remaining rate (%)” value in data set [1] was found to be 100%. In addition, the IC50 in data set [2] worked out at 7.2 nM.

In the case of `N#Cc1ccc(CCCC(=O)O)c(NC(=O)[C@@H]2C[C@]23CCOc2ccc(C(=O)Nc4ccno4)cc23)c1` [Example 2-41, 4-[4-Cyano-2-({[(2′R,4S)-6-(1,2-oxazol-5-ylcarbamoyl)-2,3-dihydrospiro[chromene-4,1′-cyclopropan]-2′-yl]carbonyl}amino)phenyl]butanoic acid], the “Remaining rate (%)” value in data set [1] is 100%. This molecule showed an IC50 in data set [2] of 3.4 nM.

For the molecule `Cn1nccc1NC(=O)c1ccc2c(c1)[C@]1(CCO2)C[C@H]1C(=O)Nc1cc(C#N)ccc1CCCC(=O)O` [Example 2-43, 4-{4-Cyano-2-[({(2′R,4S)-6-[(1-methyl-1H-pyrazol-5-yl)carbamoyl]-2,3-dihydrospiro[chromene-4,1′-cyclopropan]-2′-yl}carbonyl)amino]phenyl}butanoic acid], the “Remaining rate (%)” value in data set [1] amounted to 100%. Also, in data set [2], 3.6 nM corresponded to half-maximal inhibition (IC50).

In the case of `CCCNC(=O)c1ccc2c(c1)[C@]1(CCO2)C[C@H]1C(=O)Nc1cc(C#N)ccc1CCCC(=O)O` [Example 2-44, 4-[4-Cyano-2-({[(2′R,4S)-6-(propylcarbamoyl)-2,3-dihydrospiro[chromene-4,1′-cyclopropan]-2′-yl]carbonyl}amino)phenyl]butanoic acid], the “Remaining rate (%)” value in data set [1] is 100%. In data set [2], this molecule displayed an IC50 of 2.5 nM.

What is called IC50 is the concentration that gives 50% inhibition.
